Ten molecules from patent publication US10258625B2, “Method for treatment of metastatic and refractory cancers and tumors with an inducer that overcomes inhibition of T cell proliferation” (The Wistar Institute of Anatomy and Biology, priority 2015, dated 2019) can be followed below.

For one assay, the system named is human T cells. In words: ConA-induced activation and expansion of human T cells (high-throughput screen). The note with it: for EC50: T-cell, 168 h, read-out: EC50-T cells. Format: cell-based.
Assay [1] relates to A2780 ovarian cancer cells. In words: Molecular screening of compounds on A2780 cell proliferation (resazurin fluorescence). Particulars: for EC50: Homo sapiens, A2780 cells cultured 3 days (72 hrs), from normalized percent inhibition, N/A = ambiguous curve fits or EC50 greater than highest concentration tested (25 μM). Format: cell-based, human. The protocol: Plots show the normalized percent inhibition (NPI) vs. concentration in log (μM).
(§1) Cell proliferation assays—Cells were plated in 96-well plates. Compounds were added the next morning, and cell proliferation was measured 48 hrs later with the […] 96 MTS assay (Promega) according to the manufacturer's instructions. Molecular screening of compounds on A2780 cells was performed by adding compounds the morning after plating in 384-well plates and measuring proliferation 72 hrs later with resazurin fluorescence. Normalized percent inhibition (NPI) was calculated with respect to fluorescence values obtained with DMSO negative control and doxorubicin (5 μM) positive control as NPI=100%*(DMSO−compound)/(DMSO−doxorubicin).
EC50 values were calculated from normalized percent inhibition data using non-linear curve fitting in PRISM software.

For the next assay, the system named is MCF-7 tumor cells. In words: MCF-7 cell proliferation, MTS assay. Format: cell-based, human. Particulars: 2 days, compared with T cell division indices. The protocol:
Representative results from one of two independent experiments.
as §1
In general terms: Tetrazolium assays rely on reduction of a dye to a coloured formazan, in cell work by metabolically active cells.

The subject of another assay is T cells. In words: Cytokine rescue of T cell proliferation from MEK inhibition. The note with it: IL-2 20 U/ml, IL-7 2 ng/ml, IL-15 10 ng/ml, IL-21 100 ng/ml, IL-27 50 ng/ml, ALT-803 35.7 ng/ml. Format: cell-based, human. From the text: Proliferation of CD8 T cells after 7 days is shown.
Proliferation of CD8 T cells is shown.
Reported are percentages of cells that proliferated with GDC0973 relative to vehicle treatment with the same cytokines after 7 days. Stains are not depicted.
T cell stimulation—For human T cell proliferation assays, peripheral blood lymphocytes were obtained by leukapheresis/elutriation and Miltenyi bead-purified and K562 cells expressing human CD32 were generated as previously described^41. K32 were γ-irradiated (100 Gy) and loaded with anti-CD3 (500 ng/ml, clone OKT3; eBioscience) plus anti-CD28 (500 ng/ml, clone 15E8; EMD Millipore) antibodies at room temperature for 10 minutes. PBMCs were labeled with CELLTRACE Violet stain (Invitrogen) according to the manufacturer's instructions and cocultured with loaded K32 cells at a 10:1 T cell to K32 ratio or activated with ConA (2 μg/ml, Sigma). Proliferation of stimulated T cells was determined 7 days later by FACS and Division Index was calculated using FlowJo™ software.

Setting [2] is: human T cells activated with ConA for 7 days, from normalized percent inhibition, N/A = ambiguous curve fits or EC50 greater than highest concentration tested (25 μM).

Where two headings read alike, the source gives them in different places.

The term EC50 denotes the concentration needed to bring the measured effect to its halfway point. For `CN(C)CC[C@H](CSc1ccccc1)Nc1ccc(S(=O)(=O)NC(=O)c2ccc(N3CCN(Cc4ccccc4-c4ccc(Cl)cc4)CC3)cc2)cc1[N+](=O)[O-]` [ABT737], the concentration giving a half-maximal response (EC50) in the assay with human T cells (setting [2]) came out at 61 nM. In the case of `Cn1c(=O)n(-c2ccc(C(C)(C)C#N)cc2)c2c3cc(-c4cnc5ccccc5c4)ccc3ncc21` [BEZ235], the EC50 in the assay on human T cells (setting [2]) was found to be 2.4 nM; in assay [1], 0.021 µM. With `Cc1[nH]c2ccccc2c1CCNCc1ccc(/C=C/C(=O)NO)cc1` [LBH589], the 50% effective concentration (EC50) with human T cells (setting [2]) amounted to 25 nM. As to `C[C@]1(O)C[C@@H](c2nc(-c3ccc4ccc(-c5ccccc5)nc4c3)c3c(N)nccn32)C1` [OSI906], the “activity on T cells (in words)” value with human T cells (ConA-driven in vitro proliferation of human T cells) is “did not show any activity”. The “activity on A2780 cells (in words)” value in assay [1] is on record as “did not show any activity”. Also, the “MCF-7 tumor cell proliferation” value in the assay with MCF-7 tumor cells is reported as “reduction in tumor cell proliferation at concentrations that did not affect T cells”.

For `CC(=O)c1c(C)c2cnc(Nc3ccc(N4CCNCC4)cn3)nc2n(C2CCCC2)c1=O` [PD0332991], in the assay on human T cells (setting [2]), the concentration for a half-maximal effect (EC50) amounted to 110 nM. Consider `N#CC(=C(/N)Sc1ccccc1N)/C(C#N)=C(\N)Sc1ccccc1N` [U0126], for which the concentration giving a half-maximal response (EC50) was 1920 nM in the assay with human T cells (Homo sapiens) and 12.6 µM in assay [1]. As for “IL-15: Recombinant human IL-15 (Novoprotein); proliferative cytokine”, the “rescue of T cell proliferation in the presence of the MEK inhibitors” value (shortened to “rescue … of the MEK inhibitors”) with T cells is recorded as “able to rescue”. For the molecule “IL-21: cytokine of the panel of T cell survival and/or proliferation cytokines”, in the assay with T cells, the “rescue … of the MEK inhibitors” value is “no effect”.

B1: IL-27: cytokine of the panel of T cell survival and/or proliferation cytokines (protein, UniProt Q8NEV9 29-243; Q14213 21-229, looked up)
Interleukin-27 subunit alpha: FPRPPGRPQLSLQELRREFTVSLHLARKLLSEVRGQAHRFAESHLPGVNLYLLPLGEQLPDVSLTFQAWRRLSDPERLCFISTTLQPFHALLGGLGTQGRWTNMERMQLWAMRLDLRDLQRHLRFQVLAAGFNLPEEEEEEEEEEEEERKGLLPGALGSALQGPAQVSWPQLLSTYRLLHSLELVLSRAVRELLLLSKAGHSVWPLGFPTLSPQP
Interleukin-27 subunit beta: RKGPPAALTLPRVQCRASRYPIAVDCSWTLPPAPNSTSPVSFIATYRLGMAARGHSWPCLQQTPTSTSCTITDVQLFSMAPYVLNVTAVHPWGSSSSFVPFITEHIIKPDPPEGVRLSPLAERQLQVQWEPPGSWPFPEIFSLKYWIRYKRQGAARFHRVGPIEATSFILRAVRPRARYYVQVAAQDLTDYGELSDWSLPATATMSLGK
With B1, the “rescue … of the MEK inhibitors” value in the assay on T cells is given as “no effect”.

B2: IL-7: recombinant mouse IL-7 (Peprotech) (protein, UniProt P10168 26-154, looked up)
Interleukin-7: ECHIKDKEGKAYESVLMISIDELDKMTGTDSNCPNNEPNFFRKHVCDDTKEAAFLNRAARKLKQFLKMNISEEFNVHLLTVSQGTQTLVNCTSKEEKNVKEQKKNDACFLKRLLREIKTCWNKILKGSI
Turning to B2, the “rescue … of the MEK inhibitors” value in the assay with T cells is “able to rescue”.
